Assay type in all cases: cell-based
The subject of series [1] is HIV-1 HBX2 (wild type). The experiment in a line: High throughput cytopathic effect assay in MT-4 cells, wild type HIV-1. Put shortly: (§1)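 MT-4 cells infected 1 h at 37 °C at MOI 0.0005, then plated onto ten-point half-log compound dilutions and incubated 5 days. Cell viability read by CellTiter-Glo luminescence, normalized to AZT and DMSO controls as % CPE protection; EC50 from four-parameter fit.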
(In general: Cytopathic effects are the visible damage that an infection or toxin causes in cultured cells.)

Series [2] has as its system HIV-1 reverse transcriptase mutant K103N. Description: High throughput cytopathic effect assay in MT-4 cells, K103N mutant. The conditions noted are these: for EC50: Human immunodeficiency virus 1, MT4, 120 h, read-out: MT4 EC50 (nM) against K103N; for FC against mutant K103N: fold change of MT4 EC50 versus w.t. assay 2. Put shortly: as §1
Series [3] has as its system HIV-1 reverse transcriptase mutant Y181C. The experiment in a line: High throughput cytopathic effect assay in MT-4 cells, Y181C mutant. The conditions noted are these: for EC50: Human immunodeficiency virus 1, MT4, 120 h, read-out: MT4 EC50 (nM) against Y181C; for FC against mutant Y181C: fold change of MT4 EC50 versus w.t. assay 2. The essentials: as §1
Series [4] concerns HIV-1 recombinant strain encoding reverse transcriptase mutation K103N. The experiment in a line: Resistance profile against HIV-1 RT mutants in MT-2 cells, K103N. Particulars: ratio of mean EC50 mutant/WT virus. The method, then:
(§2) Compounds were tested for antiviral activity against a panel of NNRTI resistant viruses. A panel of 8 clonal site-directed mutant viruses representing the major resistance development pathways against rilpivirine (“RPV”), efavirenz (“EFV”), and nevirapine (“NVP”), containing both single and double mutations within HIV-1 reverse transcriptase was employed. Further details and background can be found in Janssen et al. J. Med. Chem, 2005, 48, 1901-1909; Das et al., Proc. Nat. Acad. Sci., 2008, vol., 105, no. 5, 1466-1471; and Kuroda et al., Nature Chemistry, 2013, DOI: 10.1038/NCHEM. 1559. […] HIV-1 recombinant strains encoding reverse transcriptase mutations K103N, Y181C, Y188L, G190A, K103N/Y181C, L1001/Y181C, E138K or E138KIM 184V were constructed by site-directed mutagenesis. Wild-type and mutant viruses were prepared by transfecting infectious proviral HXB2-based cDNA clones into MT-2 cells and harvesting the cell supernatants. MT-2 cells were infected with wild-type and mutant HIV-1 strains at a multiplicity of infection (MOI) of 0.005 by gentle mixing for 3 hours at 37° C. and then added at a density of 16,667 cells per well in 50 μL complete RPMI cell culture media (containing 10% fetal bovine serum (FBS) and 10% penicillin-streptomycin) to 96-well plates containing 50 μL of a 3-fold serial dilution of test compounds in RPMI medium. After 5 days of incubation at 37° C. in a humidified incubator in the presence of 5% CO2. 100 μL of Cell Titer-Glo™ Reagent (Promega Biosciences, Inc., Madison, Wis.) was added to each well and the relative light units (RLU) measured on an Envision plate reader. […] The EC50 value was defined as the compound concentration inducing a 50% decrease in virus replication. Data analysis for the antiviral activity observed in MT-2 cells was performed using XL-Fit™ software (IDBS, Guildford, Surrey, UK) to calculate EC50 from an 8-point dose-response curve using the following equation:
(§3) [formula] where y=virus inhibition, x=drug concentration, M=maximum inhibition, H=minimum inhibition and n=Hill coefficient, EC50 values (mean±standard deviation) were calculated from at least three independent experiments performed in triplicate. The level of resistance was calculated as a ratio of the mean EC50 for each mutant/WT virus. Results are disclosed in FIG. 1 and in Tables 3 and 4 below.

In series [5] the test system is HIV-1 recombinant strain encoding reverse transcriptase mutation Y181C. The experiment in a line: Resistance profile against HIV-1 RT mutants in MT-2 cells, Y181C. Particulars: ratio of mean EC50 mutant/WT virus. The method, then:
as §2, §3

Series [6] concerns HIV-1 recombinant strain encoding reverse transcriptase mutation L100I/Y181C. Description: Resistance profile against HIV-1 RT mutants in MT-2 cells, L100I/Y181C. Particulars: ratio of mean EC50 mutant/WT virus. The method, then:
as §2, §3

Series [7] has as its system HIV-1 recombinant strain encoding reverse transcriptase mutation K103N/Y181C. Description: Resistance profile against HIV-1 RT mutants in MT-2 cells, K103N/Y181C. The conditions noted are these: ratio of mean EC50 mutant/WT virus. The procedure: as §2, §3
Series [8] has as its system HIV-1 recombinant strain encoding reverse transcriptase mutation Y188L. Description: Resistance profile against HIV-1 RT mutants in MT-2 cells, Y188L. The conditions noted are these: ratio of mean EC50 mutant/WT virus. The method, then: as §2, §3
Series [9] deals with HIV-1 recombinant strain encoding reverse transcriptase mutation G190A. The experiment in a line: Resistance profile against HIV-1 RT mutants in MT-2 cells, G190A. The conditions noted are these: ratio of mean EC50 mutant/WT virus. The procedure: as §2, §3
For series [10], the system named is HIV-1 recombinant strain encoding reverse transcriptase mutation E138K/M184V. Description: Resistance profile against HIV-1 RT mutants in MT-2 cells, E138K/M184V. Particulars: ratio of mean EC50 mutant/WT virus. The procedure:
Compounds were tested for antiviral activity against a panel of NNRTI resistant viruses. A panel of 8 clonal site-directed mutant viruses representing the major resistance development pathways against rilpivirine (“RPV”), efavirenz (“EFV”), and nevirapine (“NVP”), containing both single and double mutations within HIV-1 reverse transcriptase was employed. Further details and background can be found in Janssen et al. J. Med. Chem, 2005, 48, 1901-1909; Das et al., Proc. Nat. Acad. Sci., 2008, vol., 105, no. 5, 1466-1471; and Kuroda et al., Nature Chemistry, 2013, DOI: 10.1038/NCHEM. 1559. […] HIV-1 recombinant strains encoding reverse transcriptase mutations K103N, Y181C, Y188L, G190A, K103N/Y181C, L1001/Y181C, E138K or E138KIM 184V were constructed by site-directed mutagenesis. Wild-type and mutant viruses were prepared by transfecting infectious proviral HXB2-based cDNA clones into MT-2 cells and harvesting the cell supernatants. MT-2 cells were infected with wild-type and mutant HIV-1 strains at a multiplicity of infection (MOI) of 0.005 by gentle mixing for 3 hours at 37° C. and then added at a density of 16,667 cells per well in 50 μL complete RPMI cell culture media (containing 10% fetal bovine serum (FBS) and 10% penicillin-streptomycin) to 96-well plates containing 50 μL of a 3-fold serial dilution of test compounds in RPMI medium. After 5 days of incubation at 37° C. in a humidified incubator in the presence of 5% CO2. 100 μL of Cell Titer-Glo™ Reagent (Promega Biosciences, Inc., Madison, Wis.) was added to each well and the relative light units (RLU) measured on an Envision plate reader. […] The EC50 value was defined as the compound concentration inducing a 50% decrease in virus replication. […]
[formula] where y=virus inhibition, x=drug concentration, M=maximum inhibition, H=minimum inhibition and n=Hill coefficient, EC50 values (mean±standard deviation) were calculated from at least three independent experiments performed in triplicate. The level of resistance was calculated as a ratio of the mean EC50 for each mutant/WT virus. […]

The target in series [11] is T1, hERG channels (Homo sapiens, UniProt Q12809).
T1 construct: host or cells: CHO cell line stably expressing hERG
The experiment in a line: hERG assay, whole cell recordings in CHO cell line stably expressing hERG channels. The conditions noted are these: CHO cells, whole cell patch clamp; greater than values indicate the maximum achievable concentration in the assay. The procedure:
AVIVA's CHO cell line, which stably expresses hERG channels, was used for the study. Cells were cultured in DMEM/F12 containing 10% FBS, 1% penicillin/streptomycin and 500 μg/ml G418. Before testing, cells were harvested using Accumax (Innovative Cell Technologies).
External Solution: 2 mM CaCl2; 2 mM MgCl2; 4 mM KCl; 150 mM NaCl; 10 mM Glucose; 10 mM HEPES; 305-315 mOsm; pH 7.4 (adjusted with 5M NaOH.)
Internal Solution: 140 mM KCl; 10 mM MgCl2; 6 mM EGTA; 5 mM HEPES-Na; 5 mM ATP-Mg; 295-305 mOsm; pH 7.25 (adjusted with 1M KOH).
Whole cell recordings were performed using PX 7000A (Axon Instruments) with AVIVA's SealChip™ technology. Cells were voltage clamped at a holding potential of −80 mV. The hERG current was then activated by a depolarizing step to −50 mV for 300 ms. This first step at −50 mV was used as a baseline for measuring peak amplitude of the tail current. Next, a voltage step to +20 mV was applied for 5 s to activate the channels. Finally, a step back to −50 mV for 5 s removed activation and the deactivating tail current was recorded.
All test articles were prepared from 10 mM DMSO stock solutions. Solutions were mixed by sonication for 20 min, followed by vigorous vortexing. Prior to testing, compounds were diluted to test concentrations in glass vials using External Solution. Dilutions were prepared no longer than 20 min prior to use.
After achieving whole cell configuration, cells were monitored for 90 s to assess stability and then washed with External Solution for 66 s. The voltage protocol was then applied to the cells every 12 s throughout the procedure. Only stable cells with recording parameters above threshold were allowed to enter the drug addition procedure.
External solution containing 0.1% DMSO (vehicle) was applied to the cells to establish a baseline. After allowing the current to stabilize for 3 to 10 min, test articles were applied. Test article solutions were added to cells in 4 separate additions. Cells were kept in test solution until effect of the test article reached steady state, to a maximum of 12 min. Next, 1 μM cisapride (positive control) was added. Finally, washout with External Solution was performed until the recovery current reached steady state.
Data analysis was performed using DataXpress (Axon Instruments), Clampfit (Axon Instruments) and Origin (OriginLab Corporation) software. The greater than values in Table 5 indicate the maximum achievable concentration in the assay (e.g., compounds achieving their solubility limit).
(Block of hERG is tested as a sign of cardiac risk.)

The mark [12] stands for this setting: Human immunodeficiency virus 1, MT4, 120 h, MT-4 cells, 5 days, cytopathic effect, Cell TiterGlo, read-out: MT4 EC50 (nM) against w.t.
[13] abbreviates: Human immunodeficiency virus 1, MT4, read-out: MT4 EC50 (nM) against w.t. assay 2.

Here are results for three compounds from patent US10548898B2, “Quinazoline compounds” (Gilead Sciences, Inc., priority 2014, dated 2020).

As usually defined, the EC50 is the concentration at which the effect is half-maximal.

Where two headings read alike, the source gives them in different places.

T1 sequence (Q12809 whole entry): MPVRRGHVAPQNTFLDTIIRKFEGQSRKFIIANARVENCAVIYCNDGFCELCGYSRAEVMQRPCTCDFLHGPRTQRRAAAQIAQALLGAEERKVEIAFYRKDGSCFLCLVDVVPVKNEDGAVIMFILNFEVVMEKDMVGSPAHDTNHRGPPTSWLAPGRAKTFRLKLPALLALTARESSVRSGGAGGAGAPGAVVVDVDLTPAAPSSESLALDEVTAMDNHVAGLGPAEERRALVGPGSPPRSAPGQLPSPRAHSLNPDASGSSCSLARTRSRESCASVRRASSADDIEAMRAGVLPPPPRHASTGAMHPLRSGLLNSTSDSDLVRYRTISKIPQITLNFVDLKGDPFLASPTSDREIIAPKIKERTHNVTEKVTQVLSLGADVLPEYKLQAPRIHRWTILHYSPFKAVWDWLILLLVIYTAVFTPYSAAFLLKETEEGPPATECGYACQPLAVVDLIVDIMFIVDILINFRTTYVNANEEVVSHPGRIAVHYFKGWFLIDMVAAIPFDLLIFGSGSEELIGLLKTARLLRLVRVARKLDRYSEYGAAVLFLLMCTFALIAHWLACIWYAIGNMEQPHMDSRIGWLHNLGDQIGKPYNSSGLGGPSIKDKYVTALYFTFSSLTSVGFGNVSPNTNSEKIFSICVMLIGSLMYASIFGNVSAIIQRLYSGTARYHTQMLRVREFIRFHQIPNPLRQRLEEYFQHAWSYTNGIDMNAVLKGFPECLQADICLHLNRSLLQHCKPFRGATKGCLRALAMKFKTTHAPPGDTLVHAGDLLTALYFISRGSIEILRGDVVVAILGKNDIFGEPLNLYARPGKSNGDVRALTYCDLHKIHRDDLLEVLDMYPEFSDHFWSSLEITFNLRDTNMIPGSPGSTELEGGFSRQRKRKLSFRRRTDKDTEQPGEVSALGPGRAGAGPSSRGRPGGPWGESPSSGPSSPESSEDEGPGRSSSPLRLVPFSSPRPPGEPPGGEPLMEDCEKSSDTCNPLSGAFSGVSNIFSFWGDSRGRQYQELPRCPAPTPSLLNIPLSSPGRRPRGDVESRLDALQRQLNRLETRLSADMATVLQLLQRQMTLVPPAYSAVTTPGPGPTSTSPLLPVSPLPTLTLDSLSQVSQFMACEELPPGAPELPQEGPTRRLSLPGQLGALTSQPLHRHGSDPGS

In the case of `Cc1cc(/C=C/C#N)cc(C)c1-c1cccc2c(N)nc(Nc3ccc(C#N)cc3)nc12` [Compound 2, (E)-4-((4-Amino-8-(4-(2-cyanovinyl)-2,6-dimethylphenyl)quinazolin-2-yl)amino)benzonitrile], the EC50 in series [1] (setting [12]) was found to be 3.7 nM; in series [1] (setting [13]), 3.6 nM; in series [2] it was 4 nM; in series [3] it was 10.9 nM. Besides, the “FC against mutant K103N” value in series [2] came to 1.1. Further, the “FC against mutant Y181C” value in series [3] is 3.0. For the same compound, the “Biology resistance panel-low throughput fold change (FC) K103N” value in series [4] was 0.9. Also, the “Biology resistance panel-low throughput fold change (FC) Y181C” value in series [5] came to 4.0. The “Biology resistance panel-low throughput fold change (FC) L100I/Y181C” value in [6] turned out to be 1.6. The “Biology resistance panel-low throughput fold change (FC) K103N/Y181C” value in series [7] turned out to be 4.1. Further, the “Biology resistance panel-low throughput fold change (FC) Y188L” value in series [8] amounted to 10.0. The “Biology resistance panel-low throughput fold change (FC) G190A” value in series [9] was found to be 1.6. In series [10], the “Biology resistance panel-low throughput fold change (FC) E138K/M184V” value was 5.0. Besides, the “hERG” value in [11] is more than 1 µM.
In the case of `Cc1cc(/C=C/C#N)cc(C)c1-c1cccc2c(=O)[nH]c(Nc3ccc(C#N)cn3)nc12` [Compound 34, (E)-6-((8-(4-(2-Cyanovinyl)-2,6-dimethylphenyl)-4-oxo-3,4-dihydroquinazolin-2-yl)amino)nicotinonitrile], the EC50 in series [1] (setting [12]) worked out at 2.4 nM; in series [1] (setting [13]), 3 nM; in [2] it was 3.2 nM; in series [3], 11.3 nM. In series [2], the “FC against mutant K103N” value is reported as 1.0. The “FC against mutant Y181C” value in series [3] turned out to be 3.7. For the same compound, the “Biology resistance panel-low throughput fold change (FC) K103N” value in series [4] was 1.4. In [5], the “Biology resistance panel-low throughput fold change (FC) Y181C” value came out at 3.4. In series [6], the “Biology resistance panel-low throughput fold change (FC) L100I/Y181C” value was determined as 1.7. The “Biology resistance panel-low throughput fold change (FC) K103N/Y181C” value in series [7] is 12.4. The “Biology resistance panel-low throughput fold change (FC) Y188L” value in [8] is 18.7. For the same compound, the “Biology resistance panel-low throughput fold change (FC) E138K/M184V” value in series [10] was found to be 4.2. For the same compound, the “hERG” value in [11] is more than 3 µM.
As for `Cc1cc(/C=C/C#N)cc(C)c1Nc1ccnc(Nc2ccc(C#N)cc2)n1` [Rilpivirine, reference compound], the EC50 came out at 0.9 nM in series [1] (setting [12]), 1.3 nM in [1] (setting [13]), 1.5 nM in series [2] and 3.8 nM in series [3]. For the same compound, the “FC against mutant K103N” value in series [2] turned out to be 1.2. For the same compound, the “FC against mutant Y181C” value in series [3] came to 3.1. Besides, the “Biology resistance panel-low throughput fold change (FC) K103N” value in series [4] is 1.0. Also, in series [5], the “Biology resistance panel-low throughput fold change (FC) Y181C” value was found to be 4.6. In addition, the “Biology resistance panel-low throughput fold change (FC) L100I/Y181C” value in series [6] is listed as 18.1. Also, the “Biology resistance panel-low throughput fold change (FC) K103N/Y181C” value in series [7] is 7.7. Moreover, in series [8], the “Biology resistance panel-low throughput fold change (FC) Y188L” value is on record as 22.8. Moreover, the “Biology resistance panel-low throughput fold change (FC) G190A” value in series [9] turned out to be 0.8. For the same compound, in series [10], the “Biology resistance panel-low throughput fold change (FC) E138K/M184V” value is listed as 3.0. The “hERG” value in series [11] is 0.5 µM.
